Experimental data published in patent US8802688B2, “Substituted acetyl-coa carboxylase inhibitors” (Pfizer Inc., priority 2011, dated 2014).

Columns and labels:
[1] = molecular target: T1, recombinant human ACC1 (rhACC1) (Homo sapiens, UniProt Q13085, DEL44-44); test: recombinant hACC1 Transcreener ADP detection FP assay; type: biochemical; conditions: 50 μM ATP, 30 μM acetyl-CoA
T1 construct: recombinant baculovirus containing full length human ACC1 cDNA; made in house; host or cells: SF9 insect cells, recombinant baculovirus
Experimental: (§1) For example direct inhibition of ACC activity, for the compound of Formula (I) was determined using preparations of recombinant human ACC1 (rhACC1) and recombinant human ACC2 (rhACC2). Representative sequences of the recombinant human ACC1 and ACC2 that can be used in the assay are provided herein as SEQ ID NO. 1 and SEQ. ID NO. 2, respectively.
[1] Preparation of rhACC1. Two liters of SF9 cells, infected with recombinant baculovirus containing full length human ACC1 cDNA, were suspended in ice-cold lysis buffer (25 mM Tris, pH 7.5; 150 mM NaCl; 10% glycerol; 5 mM imidazole (EMD Bioscience; Gibbstown, N.J.); 2 mM TCEP (BioVectra; Charlottetown, Canada); Benzonase nuclease (10000 U/100 g cell paste; Novagen; Madison, Wis.); EDTA-free protease inhibitor cocktail (1 tab/50 mL; Roche Diagnostics; Mannheim, Germany). Cells were lysed by 3 cycles of freeze-thaw and centrifuged at 40,000×g for 40 minutes (4° C.). Supernatant was directly loaded onto a HisTrap FF crude column (GE Healthcare; Piscataway, N.J.) and eluted with an imidazole gradient up to 0.5 M over 20 column volumes (CV). ACC1-containing fractions were pooled and diluted 1:5 with 25 mM Tris, pH 7.5, 2 mM TCEP, 10% glycerol and direct loaded onto a CaptoQ (GE Healthcare) column and eluted with an NaCl gradient up to 1 M over 20 CV's. Phosphate groups were removed from purified ACC1 by incubation with lambda phosphatase (100 U/10 μM target protein; New England Biolabs; Beverly, Mass.) for 14 hours at 4° C.; okadaic acid was added (1 μM final concentration; Roche Diagnostics) to inhibit the phosphatase. Purified ACC1 was exchanged into 25 mM Tris, pH 7.5, 2 mM TCEP, 10% glycerol, 0.5 M NaCl by 6 hour dialysis at 4° C. Aliquots were prepared and frozen at −80° C.
[2] Measurement of rhACC1 inhibition. hACC1 was assayed in a Costar #3676 (Costar, Cambridge, Mass.) 384-well plate using the Transcreener ADP detection FP assay kit (Bellbrook Labs, Madison, Wis.) using the manufacturer's recommended conditions for a 50 μM ATP reaction. The final conditions for the assay were 50 mM HEPES, pH 7.2, 10 mM MgCl2, 7.5 mM tripotassium citrate, 2 mM DTT, 0.1 mg/mL BSA, 30 μM acetyl-CoA, 50 μM ATP, and 10 mM KHCO3 Typically, a 10 μl reaction was run for 120 min at 25° C., and 10 μl of Transcreener stop and detect buffer was added and the combination incubated at room temp for an additional 1 hour. The data was acquired on a Envision Fluorescence reader (Perkinelmer) using a 620 excitation Cy5 FP general dual mirror, 620 excitation Cy5 FP filter, 688 emission (S) and a 688 (P) emission filter.
(§2) The results using the recombinant hACC1 and recombinant hACC2 Transcreener assays described above are summarized in the table below for the Compounds of Formula (I) exemplified in the Examples above.

[2] = molecular target: T2, recombinant human ACC2 (rhACC2) (Homo sapiens, UniProt O00763, V2141I); test: recombinant hACC2 Transcreener ADP detection FP assay; type: biochemical; conditions: 50 μM ATP, 30 μM acetyl-CoA
T2 construct: a full length Cytomax clone of ACC2 was purchased from Cambridge Bioscience Limited; made in house; host or cells: CHO cells, tetracycline-induced (PcDNA5 FRT TO-TOPO)
T2 sequence (O00763 whole entry V2141I): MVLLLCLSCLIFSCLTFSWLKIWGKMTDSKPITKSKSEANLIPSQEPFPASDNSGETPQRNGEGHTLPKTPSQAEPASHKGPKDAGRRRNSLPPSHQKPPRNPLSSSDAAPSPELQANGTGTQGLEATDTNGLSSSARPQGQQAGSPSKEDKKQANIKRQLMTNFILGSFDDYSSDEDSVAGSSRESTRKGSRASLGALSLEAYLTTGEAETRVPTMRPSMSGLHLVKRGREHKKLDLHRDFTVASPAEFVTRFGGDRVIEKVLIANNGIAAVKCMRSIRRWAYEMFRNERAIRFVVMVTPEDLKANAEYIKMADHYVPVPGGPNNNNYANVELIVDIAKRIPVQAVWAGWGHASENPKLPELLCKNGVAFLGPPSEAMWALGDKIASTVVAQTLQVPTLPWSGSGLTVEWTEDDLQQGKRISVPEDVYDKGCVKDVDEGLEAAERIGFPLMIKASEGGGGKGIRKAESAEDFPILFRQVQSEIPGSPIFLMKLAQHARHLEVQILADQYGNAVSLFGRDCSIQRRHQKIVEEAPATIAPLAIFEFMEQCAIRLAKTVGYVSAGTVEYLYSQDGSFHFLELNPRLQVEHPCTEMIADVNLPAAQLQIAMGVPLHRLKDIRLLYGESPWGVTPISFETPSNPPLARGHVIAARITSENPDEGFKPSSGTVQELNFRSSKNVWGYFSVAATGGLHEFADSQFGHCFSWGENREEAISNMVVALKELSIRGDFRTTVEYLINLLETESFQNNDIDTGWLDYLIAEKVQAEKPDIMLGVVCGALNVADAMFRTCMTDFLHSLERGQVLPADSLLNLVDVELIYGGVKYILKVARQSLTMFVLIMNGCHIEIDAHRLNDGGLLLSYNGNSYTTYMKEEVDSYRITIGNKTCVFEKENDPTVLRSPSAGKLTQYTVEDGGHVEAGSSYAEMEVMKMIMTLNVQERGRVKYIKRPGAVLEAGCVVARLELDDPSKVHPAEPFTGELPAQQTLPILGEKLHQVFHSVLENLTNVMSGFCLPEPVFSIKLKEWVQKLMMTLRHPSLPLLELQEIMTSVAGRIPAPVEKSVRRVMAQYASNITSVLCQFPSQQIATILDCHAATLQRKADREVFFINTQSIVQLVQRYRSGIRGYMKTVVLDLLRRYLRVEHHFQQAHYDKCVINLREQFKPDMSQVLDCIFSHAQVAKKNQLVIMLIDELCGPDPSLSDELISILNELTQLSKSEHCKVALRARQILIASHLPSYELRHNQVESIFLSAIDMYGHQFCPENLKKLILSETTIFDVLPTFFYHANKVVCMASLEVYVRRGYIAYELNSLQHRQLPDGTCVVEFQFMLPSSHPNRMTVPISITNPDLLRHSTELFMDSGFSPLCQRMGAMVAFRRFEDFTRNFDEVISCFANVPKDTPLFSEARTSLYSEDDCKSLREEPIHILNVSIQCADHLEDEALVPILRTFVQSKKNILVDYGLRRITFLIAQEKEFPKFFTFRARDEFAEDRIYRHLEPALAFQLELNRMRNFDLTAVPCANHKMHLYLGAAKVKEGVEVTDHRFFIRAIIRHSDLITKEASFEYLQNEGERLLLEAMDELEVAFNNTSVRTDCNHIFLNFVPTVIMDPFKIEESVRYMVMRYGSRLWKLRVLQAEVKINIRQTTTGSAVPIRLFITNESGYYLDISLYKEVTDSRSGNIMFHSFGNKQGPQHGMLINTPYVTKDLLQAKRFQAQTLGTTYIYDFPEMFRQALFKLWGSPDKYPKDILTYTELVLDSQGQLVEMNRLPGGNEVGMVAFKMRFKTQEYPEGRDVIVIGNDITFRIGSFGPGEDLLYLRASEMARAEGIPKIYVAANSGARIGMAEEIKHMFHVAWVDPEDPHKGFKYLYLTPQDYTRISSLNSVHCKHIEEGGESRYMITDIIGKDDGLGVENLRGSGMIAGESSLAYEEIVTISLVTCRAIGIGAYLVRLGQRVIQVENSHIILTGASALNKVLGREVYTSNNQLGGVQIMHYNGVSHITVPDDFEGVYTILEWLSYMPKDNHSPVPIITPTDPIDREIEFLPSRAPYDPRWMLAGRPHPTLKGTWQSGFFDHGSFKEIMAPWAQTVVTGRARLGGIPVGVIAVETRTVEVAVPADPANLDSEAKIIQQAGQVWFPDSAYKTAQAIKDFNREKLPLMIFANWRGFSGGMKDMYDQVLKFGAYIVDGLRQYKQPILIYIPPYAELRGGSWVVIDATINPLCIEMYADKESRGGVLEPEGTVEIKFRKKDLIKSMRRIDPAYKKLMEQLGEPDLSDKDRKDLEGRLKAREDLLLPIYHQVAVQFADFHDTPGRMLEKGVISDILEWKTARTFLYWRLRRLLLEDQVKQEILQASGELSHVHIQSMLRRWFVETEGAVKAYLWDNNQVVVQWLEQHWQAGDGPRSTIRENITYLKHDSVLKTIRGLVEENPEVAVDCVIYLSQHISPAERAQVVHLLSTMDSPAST
Experimental: as §1
[3] Preparation of rhACC2. Human ACC2 inhibition was measured using purified recombinant human ACC2 (hrACC2). Briefly, a full length Cytomax clone of ACC2 was purchased from Cambridge Bioscience Limited and was sequenced and subcloned into PcDNA5 FRT TO-TOPO (Invitrogen, Carlsbad, Calif.). The ACC2 was expressed in CHO cells by tetracycline induction and harvested in 5 liters of DMEM/F12 with glutamine, biotin, hygromycin and blasticidin with 1 μg/mL tetracycline (Invitrogen, Carlsbad, Calif.). The conditioned medium containing ACC2 was then applied to a Softlink Soft Release Avidin column (Promega, Madison, Wis.) and eluted with 5 mM biotin. 4 mgs of ACC2 were eluted at a concentration of 0.05 mg/mL (determined by A280) with an estimated purity of 95% ([…]). The purified ACC2 was dialyzed in 50 mM Tris, 200 mM NaCl, 4 mM DTT, 2 mM EDTA, and 5% glycerol. The pooled protein was frozen and stored at −80° C., with no loss of activity upon thawing. For measurement of ACC2 activity and assessment of ACC2 inhibition, test compounds were dissolved in DMSO and added to the rhACC2 enzyme as a 5× stock with a final DMSO concentration of 1%.
[4] Measurement of human ACC2 inhibition. hACC2 was assayed in a Costar #3676 (Costar, Cambridge, Mass.) 384-well plate using the Transcreener ADP detection FP assay kit (Bellbrook Labs, Madison, Wis.) using the manufacturer's recommended conditions for a 50 uM ATP reaction. The final conditions for the assay were 50 mM HEPES, pH 7.2, 5 mM MgCl2, 5 mM tripotassium citrate, 2 mM DTT, 0.1 mg/mL BSA, 30 μM acetyl-CoA, 50 μM ATP, and 8 mM KHCO3. Typically, a 10 μl reaction was run for 50 min at 25° C., and 10 μl of Transcreener stop and detect buffer was added and the combination incubated at room temp for an additional 1 hour. The data was acquired on an Envision Fluorescence reader (Perkinelmer) using a 620 excitation Cy5 FP general dual mirror, 620 excitation Cy5 FP filter, 688 emission (S) and a 688 (P) emission filter.
as §2

IC50 [1] [nM] | IC50 [2] [nM] | SMILES
6 | 1.4 | CC(C)n1ncc2c1C(=O)CC1(CCN(C(=O)c3ccc4c(C(N)=O)c[nH]c4c3)CC1)C2 [Example 1, 6-[(1-isopropyl-7-oxo-1,4,6,7-tetrahydro-1′H-spiro[indazole-5,4′-piperidin]-1′-yl)carbonyl]-1H-indole-3-carboxamide]
7.9 | 3.1 | CC(C)n1ncc2c1C(=O)CC1(CCN(C(=O)c3ccc4[nH]nc(C(N)=O)c4c3)CC1)C2 [Example 2, 5-[(1-isopropyl-7-oxo-1,4,6,7-tetrahydro-1′H-spiro[indazole-5,4′-piperidin]-1′-yl)carbonyl]-1H-indazole-3-carboxamide]
32 | 13 | CC(C)n1ncc2c1C(=O)CC1(CCN(C(=O)c3cnc4c(C(N)=O)c[nH]c4c3)CC1)C2 [Example 3, 6-[(1-isopropyl-7-oxo-1,4,6,7-tetrahydro-1′H-spiro[indazole-5,4′-piperidin]-1′-yl)carbonyl]-1H-pyrrolo[3,2-b]pyridine-3-carboxamide]
6.5 | 2.9 | CC(C)n1ncc2c1C(=O)CC1(CCN(C(=O)c3ccc4c(C(N)=O)n[nH]c4c3)CC1)C2 [Example 4]
17 | 5.8 | CC(C)n1ncc2c1C(=O)CC1(CCN(C(=O)c3cnc4[nH]cc(C(N)=O)c4c3)CC1)C2 [Example 5]
5.6 | 1.6 | CC(C)n1ncc2c1C(=O)CC1(CCN(C(=O)c3ccc4[nH]cc(C(N)=O)c4c3)CC1)C2 [Example 7]
17 | 3.3 | CC(C)n1ncc2c1C(=O)CC1(CCN(C(=O)c3ccc4[nH]c(N)nc4c3)CC1)C2 [Example 8]
8.4 | 2.9 | CNC(=O)c1n[nH]c2ccc(C(=O)N3CCC4(CC3)CC(=O)c3c(cnn3C(C)C)C4)cc12 [Example 9]
6.1 | 2.7 | CCNC(=O)c1n[nH]c2ccc(C(=O)N3CCC4(CC3)CC(=O)c3c(cnn3C(C)C)C4)cc12 [Example 10]
14 | 5.5 | CC(C)n1ncc2c1C(=O)CC1(CCN(C(=O)c3ccc4[nH]nc(C(=O)NCC(F)(F)F)c4c3)CC1)C2 [Example 11]
13 | 3 | CC(C)n1ncc2c1C(=O)CC1(CCN(C(=O)c3ccc4cc(C(N)=O)[nH]c4c3)CC1)C2 [Example 12]
2.4 | 1.5 | CNc1ccc2ccc(C(=O)N3CCC4(CC3)CC(=O)c3c(cnn3C(C)C)C4)cc2n1 [Example 13]
14 | 2.6 | CC(C)n1ncc2c1C(=O)CC1(CCN(C(=O)c3ccc4nc(N)ccc4c3)CC1)C2 [Example 15]
6.7 | 3.1 | CC(C)n1ncc2c1C(=O)CC1(CCN(C(=O)c3cnc4c(Cl)c[nH]c4c3)CC1)C2 [Example 16]
19 | 11 | CC(C)n1ncc2c1C(=O)CC1(CCN(C(=O)c3ccc4c(C#N)n[nH]c4c3)CC1)C2 [Example 17]
33 | 22 | CC(C)n1ncc2c1C(=O)CC1(CCN(C(=O)c3cnc4[nH]nc(C(N)=O)c4c3)CC1)C2 [Example 18, 5-[(1-isopropyl-7-oxo-1,4,6,7-tetrahydro-1′H-spiro[indazole-5,4′-piperidin]-1′-yl)carbonyl]-1H-pyrazolo[3,4-b]pyridine-3-carboxamide]
63 | 15 | CC(C)n1ncc2c1C(=O)CC1(CCN(C(=O)c3cnc4[nH]c(C(N)=O)cc4c3)CC1)C2 [Example 19, 5-[(1-isopropyl-7-oxo-1,4,6,7-tetrahydro-1′H-spiro[indazole-5,4′-piperidin]-1′-yl)carbonyl]-1H-pyrrolo[2,3-b]pyridine-2-carboxamide]
13 | 3 | CNc1nc2cc(C(=O)N3CCC4(CC3)CC(=O)c3c(cnn3C(C)C)C4)ccc2[nH]1 [Example 20, 1-isopropyl-1′-{[2-(methylamino)-1H-benzimidazol-5-yl]carbonyl}-1,4-dihydrospiro[indazole-5,4′-piperidin]-7(6H)-one]
47 | 6.7 | CC(C)n1ncc2c1C(=O)CC1(CCN(C(=O)c3ccc4[nH]c(C(N)=O)nc4c3)CC1)C2 [Example 21, 5-[(1-isopropyl-7-oxo-1,4,6,7-tetrahydro-1′H-spiro[indazole-5,4′-piperidin]-1′-yl)carbonyl]-1H-benzimidazole-2-carboxamide]
30 | 6.9 | COc1cc2cc(C(=O)N3CCC4(CC3)CC(=O)c3c(cnn3C(C)C)C4)cnc2cc1C(N)=O [Example 22, 3-[(1-isopropyl-7-oxo-1,4,6,7-tetrahydro-1′H-spiro[indazole-5,4′-piperidin]-1′-yl)carbonyl]-6-methoxyquinoline-7-carboxamide]
32 | 15 | CC(C)n1ncc2c1C(=O)CC1(CCN(C(=O)c3cnc4c(C#N)c[nH]c4c3)CC1)C2 [Example 23, 6-[(1-isopropyl-7-oxo-1,4,6,7-tetrahydro-1′H-spiro[indazole-5,4′-piperidin]-1′-yl)carbonyl]-1H-pyrrolo[3,2-b]pyridine-3-carbonitrile]
43 | 20 | CC(C)n1ncc2c1C(=O)CC1(CCN(C(=O)c3cnc4ccc(OCC(N)=O)cc4c3)CC1)C2 [Example 24, 2-({3-[(1-isopropyl-7-oxo-1,4,6,7-tetrahydro-1′H-spiro[indazole-5,4′-piperidin]-1′-yl)carbonyl]quinolin-6-yl}oxy)acetamide]
12 | 10 | CC(C)n1ncc2c1C(=O)CC1(CCN(C(=O)c3ccc4ccc(N)nc4c3)CC1)C2 [Example 25, 1′-[(2-aminoquinolin-7-yl)carbonyl]-1-isopropyl-1,4-dihydrospiro[indazole-5,4′-piperidin]-7(6H)-one]
7.4 | 2.1 | CC(C)(C)n1ncc2c1C(=O)CC1(CCN(C(=O)c3ccc4[nH]nc(C(N)=O)c4c3)CC1)C2 [Example 26]
8.6 | 1.7 | CC(C)(C)n1cc2c(n1)C(=O)CC1(CCN(C(=O)c3ccc4c(C(N)=O)n[nH]c4c3)CC1)C2 [Example 29]
9.4 | 2.6 | CC(C)(C)n1cc2c(n1)C(=O)CC1(CCN(C(=O)c3cnc4[nH]cc(C(N)=O)c4c3)CC1)C2 [Example 30]
